In PubChem BioAssay AID1189 (EPA DSSTox, 2008) one finds outcome data, which are given here for 87 compounds.

Molecules are shown by their SMILES. Active and inactive are the calls of the source.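 Rule for the calls: active = a tumor-causing dose value with its tumor site reported for any sex and species group of a rodent or other animal cancer study; inconclusive = only studies judged inadequate by the national testing program; inactive = tested in at least one study, none positive.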

This series in a line: DSSTox (CPDBAS) Carcinogenic Potency Database Summary SingleCellCall Results. The settings on record: animal chronic carcinogenicity bioassays, CPDB summary call. Put shortly:
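Literature-derived summary: each substance receives an overall carcinogenic/non-carcinogenic category drawn from long-term bioassays in rats, mice, hamsters, dogs or primates, using the most positive sex-species experiment and minimal evidence criteria.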
Take `CCCCNC(N)=O`: the outcome was inactive.

`CCOc1ccc(NC(C)=O)cc1`: the outcome is “active; inactive”.

For `FC(F)OC(F)(F)C(F)Cl` (configuration not stated), the result was inactive.

Consider `CC(=O)OC/C=C(C)/C=C/C=C(C)/C=C/C1=C(C)CCCC1(C)C`, for which the outcome is “active; inactive”.

For the compound `C=C(F)F`, the outcome was inactive.

With `CCOC(=O)[C@H](CCc1ccccc1)N[C@@H](C)C(=O)N1Cc2ccccc2C[C@H]1C(=O)O`, the outcome is “inactive; active”.

Regarding `CCCCC(CC)COC(=O)COc1ccc(Cl)cc1Cl` (configuration not stated), the result was inactive.

For the compound `Nc1ccc2ccccc2c1S(=O)(=O)O`, the outcome was inactive.

With `COc1c(Cl)c(Cl)c([N+](=O)[O-])c(Cl)c1Cl`, the outcome was inactive.

On to `CCN(C)N=O`, for which the outcome was active.

Take `CCOc1ccc(NC(N)=O)cc1`: the outcome was active.

Take `COc1cc(OC)c2c3c(c(=O)oc2c1)C(=O)CC3`: the outcome is “inactive; active”.

Consider `Nc1ccc2ccccc2c1`, for which the outcome was active.

Turning to `C1N2CN3CN1CN(C2)C3`, the outcome is “inactive; active”.

`ClC1=C(Cl)C2(Cl)C3C(Cl)OC(Cl)C3C1(Cl)C2(Cl)Cl` (configuration not stated): the result was inactive.

`CCOC(=O)CBr`: the result was inactive.

With `c1ccc2ccccc2c1`, the outcome was active.

For `O=P1(N(CCCl)CCCl)NCCCO1` (configuration not stated), the outcome was active.

For the compound `NCC(=O)O`, the result was active.

`ClC(Cl)=C(c1ccc(Cl)cc1)c1ccc(Cl)cc1`: the outcome was active.

`F[B-](F)(F)F`: the outcome was inactive.

For `O=C1C(c2[nH]c3ccc(S(=O)(=O)O)cc3c2O)=Nc2ccc(S(=O)(=O)O)cc21`, the outcome was “inactive; active”.

On to `Oc1ccc(O)cc1`, for which the result was active.

For the compound `O=[N+]([O-])c1c(Cl)c(Cl)c(Cl)c(Cl)c1Cl`, the outcome was active.

`ClCOCCCCOCCl`: the outcome was inactive.

Regarding `Clc1ccccc1`, the outcome was “active; inactive”.

Consider `CN=C(NC#N)NCCSCc1nc[nH]c1C`, for which the outcome was “inactive; active”.

With `CCNc1nc(Cl)nc(NCC)n1`, the outcome was inactive.

As for `NCCS(=O)(=O)O`, the outcome is “inactive; active”.

For `CCOC(=O)C1OC1(C)c1ccccc1` (configuration not stated), the result was inactive.

Turning to `Nc1ccccc1-c1ccccc1`, the outcome was “active; inactive”.

`[O]=[Cr](=[O])([OH])[O][Cr](=[O])(=[O])[OH]`: the outcome was active.

Regarding `O=NN1C[C@H](O)C[C@H]1C(=O)O`, the outcome was inactive.

Regarding `Cc1cc2ncccc2c2nc(N)n(C)c12`, the result was active.

On to `ClCOCC(COCCl)OCCl`, for which the result was active.

Regarding `ClCc1ccccc1`, the outcome was active.

Take `Cc1c(N)nc(C)c2c1[nH]c1ccccc12`: the outcome was active.

For the compound `ClC(Cl)Br`, the result was active.

For `CC1(C)[C@@H](O)CC[C@]2(C)[C@H]3C(=O)C=C4[C@@H]5C[C@@](C)(C(=O)O)CC[C@]5(C)CC[C@@]4(C)[C@]3(C)CC[C@@H]12`, the outcome was inactive.

With `CN(C)CCOc1ccc(/C(=C(/CCCl)c2ccccc2)c2ccccc2)cc1`, the result was inactive.

For the compound `NC(=O)CCCCC(N)=O`, the outcome was “inactive; active”.

In the case of `C[C@@H]1Cc2c(Cl)cc(C(=O)N[C@@H](Cc3ccccc3)C(=O)O)c(O)c2C(=O)O1`, the outcome was active.

For the compound `Cc1cc(C)c(N=Nc2c(O)c(S(=O)(=O)O)cc3cc(S(=O)(=O)O)ccc23)cc1C`, the outcome was “active; inactive”.

Take `S=C=NCCCCCCc1ccccc1`: the result was inactive.

Regarding `C/C=C/c1ccc(OC)cc1`, the result was inactive.

Turning to `CN(N)C=O`, the result was active.

For the compound `Oc1ccccc1`, the outcome was inactive.

For `Cc1cc(-c2ccc(N)c(C)c2)ccc1N`, the outcome was active.

For the compound `Cc1ccc(N=C=O)cc1N=C=O`, the outcome was “active; inactive”.

Take `O=NN1CCOCC1`: the outcome is “active; inactive”.

With `CC(O)CN(CCO)N=O` (configuration not stated), the result was active.

As for `C[C@]12CCC(=O)C=C1CC[C@@H]1[C@@H]2[C@@H](O)C[C@@]2(C)[C@H]1CC[C@]2(O)C(=O)CO`, the result was inactive.

`O=NN(CC(F)(F)F)CC(F)(F)F`: the result was inactive.

`C=CC=C`: the outcome was “active; inactive”.

For the compound `CC(O)CN(C)N=O` (configuration not stated), the outcome was active.

For the compound `CC(C)O`, the outcome was inactive.

For `CC(C(O)c1ccccc1)N(C)N=O` (configuration not stated), the result was active.

`O=[N+]([O-])c1ccc(-c2nc(NCCO)c3ccccc3n2)s1`: the result was active.

Regarding `CN(C)c1ccc(N=Nc2ccccc2)cc1`, the result was active.

For `NC(N)=O`, the outcome was inactive.

Turning to `NC1=NC(=O)C(c2ccccc2)O1` (configuration not stated), the outcome is “inactive; active”.

As for `Nc1ccc(N(CCO)CCO)cc1`, the result was inactive.

Consider `NNC(=O)c1cccnc1`, for which the outcome was active.

With `c1ccc2[nH]ccc2c1`, the result was inactive.

As to `CC(=O)NCc1nc(-c2ccc([N+](=O)[O-])o2)no1`, the outcome was active.

`[O]=[Nb](=[O])[OH]`: the outcome was inactive.

For `C=CCOC(=O)c1ccccc1C(=O)OCC=C`, the outcome was inactive.

Turning to `C#CC(OC(N)=O)(c1ccccc1)c1ccc(Cl)cc1` (configuration not stated), the outcome is “active; inactive”.

On to `Clc1ccc(C(c2ccc(Cl)cc2)C(Cl)Cl)cc1`, for which the result was active.

`Cc1cccc(C)c1NC(=O)CN1CCCC1=O`: the result was inactive.

Consider `C/C=C(/C)C(=O)O[C@H]1CCN2CC=C(COC(=O)[C@](O)([C@H](C)OC)C(C)(C)O)[C@H]12`, for which the result was active.

In the case of `CN(C)CCN(Cc1cccs1)c1ccccn1`, the result was active.

For the compound `ClCOCc1ccc(COCCl)cc1`, the outcome was active.

For the compound `C=C(Cl)Cl`, the result was active.

In the case of `NC(=O)/C(=C\c1ccc([N+](=O)[O-])o1)c1ccco1`, the result was active.

In the case of `COc1ccc(N)cc1N`, the result was active.

Take `O=NN1CCC(=O)NC1=O`: the result was active.

As to `O=c1[nH]c(=O)n(C2CCCO2)cc1F` (configuration not stated), the result was inactive.

For `C=CCN(CC=C)N=O`, the result was active.

For `CC1CN(N=O)C(=O)NC1=O` (configuration not stated), the outcome was inactive.

With `COS(C)(=O)=O`, the outcome was “active; inactive”.

In the case of `CC(=O)NNC(=O)c1ccncc1`, the result was active.

Turning to `O=NO`, the result was active.

Turning to `CCn1c2ccccc2c2cc(N)ccc21`, the outcome was active.

`NC(N)=Nc1nc(CSCCNc2nsnc2N)cs1`: the outcome was active.

For the compound `Cc1ccc(N=Nc2c(O)c(S(=O)(=O)O)cc3ccc(S(=O)(=O)O)cc23)c(C)c1`, the outcome was “active; inactive”.

As for `COc1ccc(N)c(C)c1`, the outcome was active.
